This is an account of results in paper PMC6100113, “Involvement of CYP4F2 in the Metabolism of a Novel Monophosphate Ester Prodrug of Gemcitabine and Its Interaction Potential In Vitro” (Molecules : A Journal of Synthetic Chemistry and Natural …, 2018).

Series [1] in a line: Metabolic stability in rat liver microsomes. The series is classed as in vitro ADME. Conditions: rat liver microsomes 0.2 mg/mL, with NADPH, 1 μM, 37 °C. The procedure: Stability of Compound-3 was first investigated in microsomal systems from human and rat. The microsomal protein and Compound-3 concentrations were optimized to 0.2 mg/mL and 1 µM, respectively. Before the start of the incubation, reaction mixtures containing phosphate buffer (100 mM, pH 7.4), microsomes and Compound-3 in a total volume of 50 µL were warmed up at 37 °C for 10 min. The reaction was started with the addition of NADPH at a final concentration of 1 mM. Incubations were terminated at a specified time with the addition of 100 µL ice-cold acetonitrile containing the internal standard. The samples were then centrifuged, and aliquots of 10 µL of the supernatants were transferred into liquid chromatography-tandem mass spectrometry (LC-MS/MS) for the analysis of Compound-3 levels.
For orientation: Liver microsomes are vesicles of endoplasmic reticulum, rich in cytochrome P450 enzymes.

The nature of series [2]: Stability in human plasma. The series is classed as in vitro ADME. The note with it: 1 μM, 37 °C. The procedure: (§1) For stability testing in plasma, the reaction was started with the addition of Compound-3 (1 µM). At specified time points, aliquots of 25 µL of the reaction mixtures were transferred into 100 μL ice-cold acetonitrile containing the internal standard. The samples were then centrifuged, and aliquots of 10 µL of the supernatants were transferred onto LC-MS/MS for the analysis of Compound-3 levels.

Another series is described as follows: Stability in rat plasma. Conditions: 1 μM, 37 °C. The series is classed as in vitro ADME. The procedure:
as §1

Series [3] is described as follows: Metabolic stability in human hepatocytes. The series is classed as in vitro ADME. The note with it: human hepatocytes 1 × 10^6 cell/mL, 1 μM, 37 °C. The procedure: For stability evaluation in human hepatocytes, cryopreserved primary human hepatocytes were revived according to vendor’s protocol and diluted to a density of 1 × 10^6 cell/mL with William’s Medium. The reaction was started with the addition of Compound-3 (1 μM). At specified time points, aliquots of 25 μL of the reaction mixtures were transferred into 100 μL ice-cold acetonitrile containing the internal standard. The samples were then centrifuged, and aliquots of 10 μL of the supernatants were transferred onto LC-MS/MS for the analysis of Compound-3 levels and its metabolites.

Series [4] can be described thus: Metabolite identification by UPLC/Triple TOF MS in rat liver microsomes. The series is classed as in vitro ADME. On the set-up: key: √: metabolites were detected by high-resolution mass spectrometry. The note with it: Compound-3 10 μM, 1 mg/mL microsomes, NADPH, 60 min, HRMS. The protocol:
(§2) For metabolite identification, a higher concentration of Compound-3 (10 μM) was incubated with liver microsomes (1 mg/mL) in the presence of NADPH (1 mM) and primary human hepatocytes at a density of 1 × 10^6 cell/mL. Samples were collected at 0 min and 60 min with the addition of ice-cold acetonitrile. After vortexing and centrifugation, the supernatant was transferred into a new tube and evaporated to dryness. The samples were then reconstituted in 100 μL of water and methanol (v/v, 9:1). An aliquot of 10 μL of reconstituted solution was injected into UPLC/Triple TOF 5600^+ MS for metabolite identification.
(§3) Identification of Compound-3 metabolites was carried out using Acquity UPLC/Triple TOF 5600^+ system. Chromatographic separation for Compound-3 and its metabolites were achieved by an Acquity UPLC HSS T3 column (100 × 2.1 mm i.d., […]; Waters Corp.) maintained at 40 °C. The mobile phase was a mixture of 0.02% formic acid in 5 mM ammonium acetate (A) and methanol (B). The gradient elution was started from 2% B and maintained for 4 min, then increased linearly to 75% B over the next 4 min and maintained for 8 min. […] The flow rate was 0.4 mL/min and the eluent was monitored by UV detection at 280 nm.
(§4) For mass detection, a Triple TOF 5600^+ mass spectrometer (AB Sciex, Framingham, MA, USA) was operated in positive ion electrospray (ES-positive) mode with the source temperature at 500 °C and scan range from m/z 100 to 1000 Da. Other parameters were set as follows: ion spray voltage, 5500 V; decluttering potential, 80 V; curtain gas, 40 psi; ion source gas 1, 55 psi; and ion source gas 2, 50 psi. Collision energies of 25 and 65 eV were used for TOF MS and product ion scans, respectively, and a collision energy spread of 20 was used in the MS/MS analysis. Information-dependent acquisition (IDA), together with real-time multiple mass defect filter, was used to trigger acquisition of MS/MS spectra.

Series [5] in a line: Metabolite identification by UPLC/Triple TOF MS in rat intestinal microsomes. The series is classed as in vitro ADME. On the set-up: key: √: metabolites were detected by high-resolution mass spectrometry. The note with it: Compound-3 10 μM, NADPH, 60 min, HRMS.
A short description of series [6]: Metabolite identification by UPLC/Triple TOF MS in human hepatocytes. The series is classed as in vitro ADME. Also noted: key: √: metabolites were detected by high-resolution mass spectrometry. Conditions: Compound-3 10 μM, 1 × 10^6 cell/mL, 60 min, HRMS. The protocol: as §2, §3, §4
Another series has as its target T1, CYP4F2 (Homo sapiens, UniProt P78329).
T1 construct: purchased Corning Gentest
T1 sequence (P78329 5-520): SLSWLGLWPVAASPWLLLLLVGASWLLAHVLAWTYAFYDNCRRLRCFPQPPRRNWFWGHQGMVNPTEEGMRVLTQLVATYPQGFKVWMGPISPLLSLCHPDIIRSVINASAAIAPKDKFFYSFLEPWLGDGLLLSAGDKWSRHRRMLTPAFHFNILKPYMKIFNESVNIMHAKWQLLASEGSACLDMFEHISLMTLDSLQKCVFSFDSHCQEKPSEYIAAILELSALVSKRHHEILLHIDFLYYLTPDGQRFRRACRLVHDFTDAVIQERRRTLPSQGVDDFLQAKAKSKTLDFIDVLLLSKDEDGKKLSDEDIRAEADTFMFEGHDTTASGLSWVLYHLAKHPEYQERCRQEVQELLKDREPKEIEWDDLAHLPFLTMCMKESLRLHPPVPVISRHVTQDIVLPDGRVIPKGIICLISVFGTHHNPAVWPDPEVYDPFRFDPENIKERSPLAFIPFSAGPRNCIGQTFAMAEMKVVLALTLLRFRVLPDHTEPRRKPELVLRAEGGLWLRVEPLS
Description: Formation kinetics of M4 (carboxylic acid) from Compound-3 by CYP4F2. The series is classed as in vitro ADME. Conditions: CYP4F2 10 nM, 10 min, uncompetitive substrate inhibition equation, estimated. The procedure: To investigate the formation kinetics of carboxylic acid metabolite (M4) from Compound-3, varying concentrations of Compound-3 (0–10 µM) were incubated with 10 nM CYP4F2 and 1 mM NADPH in 100 mM phosphate buffer (pH 7.4). The reactions were carried at 37 °C for 10 min and terminated with the addition of ice-cold acetonitrile containing the internal standard. Samples were then centrifuged, and aliquots of 10 μL of the supernatants were analyzed by LC-MS/MS for M4 levels.
Kinetic parameters of Compound-3 in recombinant human CYP4F2 were calculated using Enzyme Kinetics Modules of SigmaPlot (Version 14.0, Systat Software, San Jose, CA, USA). An uncompetitive substrate inhibition equation was also used:V = (Vmax × [S])/{Km + [S] × (1 + [S]/Ki)}(2) where Ki is the disassociation constant describing the inhibitor-enzyme interaction.

Series [7] has as its system human equilibrative transporter 1 (hENT1). The note with it: cited from earlier work.

Turning to `CCCCCCCCCCCCCCCCCCOCCOP(=O)(O)OCC1OC(n2ccc(N)nc2=O)C(F)(F)C1O` (stereo not drawn) [Compound-3], the “disappearance in 60 min” value in series [1] is ~ 10%. Also, the disappearance in plasma result (in series [2]; in “Stability in rat plasma”) was “did not display noticeable disappearance” in each case. Also, the “disappearance after 60 min incubation” value in [3] was ~ 30%. Further, the “detected in matrix RLM” value in [4] was “√”. The “detected in matrix RIM” value in [5] was “√”. In series [6], the “detected in matrix Human Hepatocytes” value was “√”. At CYP4F2, the Ki was 1.2 nM. Besides, the “cellular uptake limitation by hENT1” value in series [7] is recorded as “low propensity to be limited”.
